Target: human lung tryptase
Experiment: β-Tryptase In-Vitro Enzyme Assay
Assay type: biochemical
Details: human lung tryptase 1 nM, substrate H-D-HHT-Ala-Arg-pNa 500 μM, pH 7.4, room temperature
Experimental: The β-tryptase assay was conducted with human lung tryptase (Cortex Biochem #CP3033) in an aqueous buffer (10 mM Tris, 10 mM Hepes, 150 mM NaCl, 0.1% PEG 8000, pH 7.4) using the chromogenic substrate H-D-HHT-Ala-Arg-pNa. […] Percent inhibition was calculated by comparing the initial reaction velocity of samples without inhibitor to those with inhibitor. The initial reaction velocities were analyzed using Microsoft Excel.

Row | SMILES | IC50
1 | Cc1nn(-c2ccc(C(=O)N3CCC4(CC3)COc3ccc(CN)cc34)o2)c(C)c1Br [Cpd 150, 1-[5-(3,5-dimethyl-4-bromo-pyrazol-1-yl)-furan-2-yl]carbonyl-5′-aminomethyl-spiro[piperidine-4,3′-(2H)-benzo[b]furan]] | 180 nM
2 | CS(=O)(=O)CS(=O)(=O)N1CC2(CCN(C(=O)c3ccc(C#Cc4ccccc4)o3)CC2)c2cc(CN)ccc21 [Cpd 348, 1-(5-phenylethynyl-furan-2-yl)carbonyl-1′-(methylsulfonylmethyl)sulfonyl-5′-aminomethyl-spiro[piperidine-4,3′-(2H)-indole]] | 24 nM
3 | CS(=O)(=O)CC(=O)N1CC2(CCN(C(=O)c3ccc(C#Cc4ccccc4)o3)CC2)c2cc(CN)ccc21 [Cpd 333, 1-(5-phenylethynyl-furan-2-yl)carbonyl-1′-(methylsulfonylmethyl)carbonyl-5′-aminomethyl-spiro[piperidine-4,3′-(2H)-indole]] | 65 nM
4 | COc1ccc(CC(=O)N2CCC3(CC2)COc2ccc(CN)cc23)cc1C [Cpd 102, 1-(3-methyl-4-methoxy-benzyl)carbonyl-5′-aminomethyl-spiro[piperidine-4,3′-(2H)-benzo[b]furan]] | 600 nM
5 | Cc1cc(OCc2ccc(C(=O)N3CCC4(CC3)COc3ccc(CN)cc34)o2)ccc1Cl [Cpd 139, 1-[5-(3-methyl-4-chloro-phenoxymethyl)-furan-2-yl]carbonyl-5′-aminomethyl-spiro[piperidine-4,3′-(2H)-benzo[b]furan]] | 87 nM
6 | NCc1ccc2c(c1)C1(CCN(C(=O)c3ccc(C#Cc4ccccc4)o3)CC1)CN2CCC(=O)O [Cpd 322, 1-(5-phenylethynyl-furan-2-yl)carbonyl-1′-(2-carboxy-ethyl)-5′-aminomethyl-spiro[piperidine-4,3′-(2H)-indole]] | 450 nM
7 | NCc1ccc2c(c1)C1(CCN(C(=O)c3ccc(C#Cc4ccccc4)o3)CC1)CN2C(=O)Cc1nnn[nH]1 [Cpd 330, 1-(5-phenylethynyl-furan-2-yl)carbonyl-1′-(2-1H-tetrazol-5-yl-1-oxo-ethyl)-5′-aminomethyl-spiro[piperidine-4,3′-(2H)-indole]] | 25 nM
8 | COc1ccc(CN2C(=O)c3ccc(CN)cc3C23CCN(C(=O)c2ccc(C#Cc4ccccc4)o2)CC3)c(OC)c1 [Cpd 316, 1-(5-phenylethynyl-furan-2-yl)carbonyl-1′-oxo-2′-(2,4-dimethoxy-benzyl)-5′-aminomethyl-spiro[piperidine-4,3′-1H-isoindole]] | 74 nM
9 | COc1ccc(-c2ccc(C(=O)N3CCC4(CC3)COc3ccc(CN)cc34)o2)cc1 [Cpd 132, 1-[5-(4-methoxy-phenyl)-furan-2-yl]carbonyl-5′-aminomethyl-spiro[piperidine-4,3′-(2H)-benzo[b]furan]] | 26 nM
10 | NCc1ccc2c(c1)C1(CCN(C(=O)c3cccc(NS(=O)(=O)c4ccccc4)c3)CC1)CO2 [Cpd 18, 1-(3-phenylsulfonylamino-phenyl)carbonyl-5′-aminomethyl-spiro[piperidine-4,3′-(2H)-benzo[b]furan]] | 3300 nM
11 | NCc1ccc2c(c1)C1(CCN(C(=O)/C=C/c3ccc4c(c3)OCO4)CC1)CO2 [Cpd 187, (E)-1-(benzodioxol-5-ylethenyl)carbonyl-5′-aminomethyl-spiro[piperidine-4,3′-(2H)-benzo[b]furan]] | 790 nM
12 | NCc1ccc2c(c1)C1(CCN(C(=O)/C=C/c3ccncc3)CC1)CO2 [Cpd 244, (E)-1-(pyridin-4-ylethenyl)carbonyl-5′-aminomethyl-spiro[piperidine-4,3′-(2H)-benzo[b]furan]] | 2500 nM
13 | COC(=O)N1CC2(CCN(C(=O)c3ccc(C#Cc4ccccc4)o3)CC2)c2cc(CN)ccc21 [Cpd 323, 1-(5-phenylethynyl-furan-2-yl)carbonyl-1′-methoxycarbonyl-5′-aminomethyl-spiro[piperidine-4,3′-(2H)-indole]] | 110 nM
14 | NCc1ccc2c(c1)C1(CCN(C(=O)c3ccc(C#Cc4ccccc4)o3)CC1)CN2S(=O)(=O)c1ccccc1 [Cpd 341, 1-(5-phenylethynyl-furan-2-yl)carbonyl-1′-phenylsulfonyl-5′-aminomethyl-spiro[piperidine-4,3′-(2H)-indole]] | 5.7 nM
15 | COc1ccc(-c2c(C(=O)N3CCC4(CC3)COc3ccc(CN)cc34)sc(SC)c2C#N)cc1 [Cpd 201, 1-[3-(4-methoxy-phenyl)-4-cyano-5-methylthio-thien-2-yl]carbonyl-5′-aminomethyl-spiro[piperidine-4,3′-(2H)-benzo[b]furan]] | 45 nM
16 | NCc1ccc2c(c1)C1(CCN(C(=O)c3ccc(Cl)c(Cl)c3)CC1)C(=O)N2 [Cpd 315, 1-(3,4-dichlorophenyl)carbonyl-2′-oxo-5′-aminomethyl-spiro[piperidine-4,3′-(2H)-indole]] | 480 nM
17 | NCc1ccc2c(c1)C1(CCN(C(=O)c3ccc(Cl)c(Cl)c3)CC1)CS2 [Cpd 353, 1-(3,4-dichlorophenyl)carbonyl-5′-aminomethyl-spiro[piperidine-4,3′-(2H)-benzo[b]thiophene]] | 37 nM
18 | NCc1ccc2c(c1)C1(CCN(C(=O)/C=C/c3cccnc3)CC1)CO2 [Cpd 253, (E)-1-(pyridin-3-ylethenyl)carbonyl-5′-aminomethyl-spiro[piperidine-4,3′-(2H)-benzo[b]furan]] | 2400 nM

The next lines start with the values.

Row | IC50 | SMILES
19 | 250 nM | Cc1ccccc1/C=C/C(=O)N1CCC2(CC1)COc1ccc(CN)cc12 [Cpd 191, (E)-1-(2-methyl-phenylethenyl)carbonyl-5′-aminomethyl-spiro[piperidine-4,3′-(2H)-benzo[b]furan]]
20 | 280 nM | NCc1ccc2c(c1)C1(CCN(C(=O)c3cc(-c4ccc(Cl)cc4)cs3)CC1)CO2 [Cpd 357, 1-[4-(4-chloro-phenyl)-thien-2-yl]carbonyl-5′-aminomethyl-spiro[piperidine-4,3′-(2H)-benzo[b]furan]]
21 | 710 nM | COC(=O)c1ccc(C(=O)N2CCC3(CC2)COc2ccc(CN)cc23)cc1 [Cpd 58, 1-(4-methoxycarbonyl-phenyl)carbonyl-5′-aminomethyl-spiro[piperidine-4,3′-(2H)-benzo[b]furan]]
22 | 5100 nM | NCc1ccc2c(c1)C1(CCN(C(=O)NCc3ccccc3)CC1)CO2 [Cpd 263, 1-benzylaminocarbonyl-5′-aminomethyl-spiro[piperidine-4,3′-(2H)-benzo[b]furan]]
23 | 2700 nM | NCc1ccc2c(c1)C1(CCN(C(=O)Cc3cccc(C(F)(F)F)c3)CC1)CO2 [Cpd 85, 1-(3-trifluoromethyl-benzyl)carbonyl-5′-aminomethyl-spiro[piperidine-4,3′-(2H)-benzo[b]furan]]
24 | 42 nM | NCc1ccc2c(c1)C1(CCN(C(=O)c3cc(-c4ccccc4)c(C(F)(F)F)s3)CC1)CO2 [Cpd 295, 1-(4-phenyl-5-trifluoromethyl-thien-2-yl)carbonyl-5′-aminomethyl-spiro[piperidine-4,3′-(2H)-benzo[b]furan]]
25 | 740 nM | NCc1ccc2c(c1)C1(CCN(C(=O)/C=C/c3ccc(F)cc3)CC1)CO2 [Cpd 182, (E)-1-(4-fluoro-phenylethenyl)carbonyl-5′-aminomethyl-spiro[piperidine-4,3′-(2H)-benzo[b]furan]]
26 | 6400 nM | NCc1ccc2c(c1)C1(CCN(C(=O)c3cccc4c3C(=O)c3ccccc3-4)CC1)CO2 [Cpd 270, 1-(9-oxo-fluoren-1-yl)carbonyl-5′-aminomethyl-spiro[piperidine-4,3′-(2H)-benzo[b]furan]]
27 | 4800 nM | CC(=O)c1ccc(C(=O)N2CCC3(CC2)COc2ccc(CN)cc23)cc1 [Cpd 67, 1-(4-methylcarbonyl-phenyl)carbonyl-5′-aminomethyl-spiro[piperidine-4,3′-(2H)-benzo[b]furan]]
28 | 55 nM | Cc1cc(C(=O)N2CCC3(CC2)COc2ccc(CN)cc23)sc1Br [Cpd 259, 1-(4-methyl-5-bromo-thien-2-yl)carbonyl-5′-aminomethyl-spiro[piperidine-4,3′-(2H)-benzo[b]furan]]
29 | 820 nM | Cc1cc(C(=O)N2CCC3(CC2)COc2ccc(CN)cc23)sc1C(O)O [Cpd 256, 1-(5-dihydroxymethyl-4-methyl-thien-2-yl)carbonyl-5′-aminomethyl-spiro[piperidine-4,3′-(2H)-benzo[b]furan]]
30 | 72 nM | Cc1ccc(-c2ccc(C(=O)N3CCC4(CC3)COc3ccc(CN)cc34)o2)cc1 [Cpd 131, 1-[5-(4-methyl-phenyl)-furan-2-yl]carbonyl-5′-aminomethyl-spiro[piperidine-4,3′-(2H)-benzo[b]furan]]
31 | 1700 nM | NCc1ccc2c(c1)C1(CCN(C(=O)Cc3cccc(Br)c3)CC1)CO2 [Cpd 87, 1-(3-bromo-benzyl)carbonyl-5′-aminomethyl-spiro[piperidine-4,3′-(2H)-benzo[b]furan]]
32 | 48 nM | NCc1ccc2c(c1)C1(CCN(C(=O)c3cc4c(F)cccc4s3)CC1)CO2 [Cpd 168, 1-(4-fluoro-benzo[b]thien-2-yl)carbonyl-5′-aminomethyl-spiro[piperidine-4,3′-(2H)-benzo[b]furan]]
33 | 4100 nM | NCc1ccc2c(c1)C1(CCN(C(=O)c3cc4cc(C(F)(F)F)ccc4s3)CC1)CO2 [Cpd 200, 1-(5-trifluoromethyl-benzo[b]thien-2-yl)carbonyl-5′-aminomethyl-spiro[piperidine-4,3′-(2H)-benzo[b]furan]]
34 | 3200 nM | NCc1ccc2c(c1)C1(CCN(C(=O)Cc3cccc(Br)c3)CC1)CO2 [Cpd 95, 1-(3-bromo-benzyl)carbonyl-5′-aminomethyl-spiro[piperidine-4,3′-(2H)-benzo[b]furan]]
35 | 36 nM | Cc1ccc(C(=O)N2CCC3(CC2)COc2ccc(CN)cc23)cc1I [Cpd 50, 1-(3-iodo-4-methyl-phenyl)carbonyl-5′-aminomethyl-spiro[piperidine-4,3′-(2H)-benzo[b]furan]]
36 | 16 nM | NCc1ccc2c(c1)C1(CCN(C(=O)c3cccc(I)c3)CC1)CO2 [Cpd 48, 1-(3-iodo-phenyl)carbonyl-5′-aminomethyl-spiro[piperidine-4,3′-(2H)-benzo[b]furan]]
